Results as given in patent US8980938B2, “CXCR2 inhibitors” (Sanofi, priority 2006, dated 2015).

Target: human CXCR2 (Homo sapiens (Human), UniProt P25025)
Assay: CXCR2 inhibition: calcium fluorescence assay (FLIPR) with chemokine IL-8
Format: cell-based
Conditions: CHO-K1 cells stably transfected with human CXCR2 and Gα16, Fluo-4 calcium response
From the text: Determination of CXCR2 Inhibition: Calcium Fluorescence Assay (FLIPR)
The assay is based on the detection of intracellular calcium changes detected by the selective, calcium-chelating dye, Fluo-4 (Molecular Probes). A large fluorescence intensity increase is observed upon calcium association with Fluo-4. The dye is delivered to the cell interior using an acetoxymethylester form of Fluo-4, where the intracellular esterase activity results in the charged species being released and trapped within the cytoplasm of the cell. […] By co-expressing the CXCR2 receptor and the promiscuous Gα16 protein, activation of this chemokine receptor is directed into this phospholipase C cascade resulting in intracellular calcium mobilization.
The CHO-K1 cells stably transfected with human CXCR2 and the promiscuous Gα16 protein are maintained in a log phase of growth at 37° C. and 5% CO2 in the following media: Iscove's, 10% FBS, 1X Penicillin-Streptomycin, 400 μg/ml G418 and 350 μg/ml Zeocin. Approximately 24-48 hours prior to the assay, 20,000-30,000 cells/well are plated onto a 96-well black/clear bottomed assay plate (Becton Dickinson) with a well volume of 180 μl. For dye loading the culture medium is carefully removed and replaced by 100 μl/well dye solution (4 μM Fluo-4 in 135 mM NaCl, 5 mM KCl, 1 mM magnesium sulphate, 5 mM glucose, 20 mM hepes, 2.5 mM probenecid; pH 7.4). Cells are incubated for 1 h at 37° C., and then washed 3× with buffer. After washing 90 μl buffer/well are left. Increasing concentrations of compound is added in 45 μl buffer (4× concentrated) followed by 10 min incubation at 37° C. Then the chemokine (10-100 nM) is applied in 45 μl buffer (4× concentrated) and the measurement is performed for 2 min. The IC50 value of a compound can be determined by calculation of % inhibition of total calcium response to the chemokine.
CXCR2 Inhibition with Chemokine IL-8 for Selected Example Compounds: […]

Chain of human CXCR2 (P25025 whole entry): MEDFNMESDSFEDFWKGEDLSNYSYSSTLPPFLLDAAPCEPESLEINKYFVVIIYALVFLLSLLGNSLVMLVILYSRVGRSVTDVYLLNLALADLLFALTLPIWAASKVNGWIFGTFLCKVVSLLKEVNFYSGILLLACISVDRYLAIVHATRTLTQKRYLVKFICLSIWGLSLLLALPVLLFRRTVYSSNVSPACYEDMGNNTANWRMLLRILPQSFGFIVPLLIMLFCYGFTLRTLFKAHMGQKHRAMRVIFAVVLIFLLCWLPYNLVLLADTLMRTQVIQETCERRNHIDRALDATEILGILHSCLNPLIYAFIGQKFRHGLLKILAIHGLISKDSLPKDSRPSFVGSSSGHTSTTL

| Structure (SMILES) | IC50 [nM] |
| --- | --- |
| CC(C)(NC(=O)c1ccc2ccsc2c1OCCCc1ccccc1)C(=O)O [Example 8, 2-Methyl-2-{[7-(3-phenyl-propoxy)-benzo[b]thiophene-6-carbonyl]-amino}-propionic acid] | 600 |
| CC(C)(NC(=O)c1ccc2c(c1OCCCOc1ccccc1)CCCC2)C(=O)O [Example 7, 2-Methyl-2-{[1-(3-phenoxy-propoxy)-5,6,7,8-tetrahydro-naphthalene-2-carbonyl]-amino}-propionic acid] | 2100 |
| CC(C)(NC(=O)c1ccc2sccc2c1OCCOc1ccccc1)C(=O)O [Example 12, 2-Methyl-2-{[4-(2-phenoxy-ethoxy)-benzo[b]thiophene-5-carbonyl]-amino}-propionic acid] | 1700 |
| CC(C)(NC(=O)c1ccc2c(c1OCCOc1ccccc1)CCCC2)C(=O)O [Example 3, 2-Methyl-2-{[1-(2-phenoxy-ethoxy)-5,6,7,8-tetrahydro-naphthalene-2-carbonyl]-amino}-propionic acid] | 1000 |
| CC(C)(NC(=O)c1ccc2ccsc2c1OCCOc1ccc(F)cc1)C(=O)O [Example 11, 2-({7-[2-(4-Fluoro-phenoxy)-ethoxy]-benzo[b]thiophene-6-carbonyl}-amino)-2-methyl-propionic acid] | 800 |
| CC(C)(NC(=O)c1ccc2c(c1OCCCCc1ccccc1)CCCC2)C(=O)O [Example 5, 2-Methyl-2-{[1-(4-phenyl-butoxy)-5,6,7,8-tetrahydro-naphthalene-2-carbonyl]-amino}-propionic acid] | 2000 |
| CC(C)(NC(=O)c1ccc2c(c1OCCC1CCCCC1)CCCC2)C(=O)O [Example 2, 2-{[1-(2-Cyclohexyl-ethoxy)-5,6,7,8-tetrahydro-naphthalene-2-carbonyl]-amino}-2-methyl-propionic acid] | 1400 |
